Test results from paper PMC9776381, “A Large-Scale High-Throughput Screen for Modulators of SERCA Activity” (Biomolecules, 2022).
Entries after “also recorded” stand apart in the source; their conditions may differ.

Columns and labels:
[1] = molecular target: T1, SERCA2a (cardiac SR vesicles) (Sus scrofa, UniProt P11607); experiment: Oxalate-supported Ca2+-uptake assay, cardiac SR (CRC at pCa 5.4); assay type: biochemical, porcine; conditions: for Cardiac SR Ca^2+ Uptake Activity Percent Increase: maximal effect of CRC; for Cardiac SR Ca^2+ Uptake Activity Percent Increase / EC50: pCa 5.4, mean ± SD, dash = no observable effect; for EC50: read-out: Cardiac SR Ca^2+ Uptake Activity EC50
T1 construct: Cardiac SR vesicles were isolated from fresh porcine left ventricular tissue; from tissue; host or cells: porcine left ventricular tissue, cardiac SR vesicles
Experimental: (§1) For skeletal SR, rabbit muscles were freshly harvested from the back and hind leg of New Zealand White rabbits and purified using a sucrose gradient. The resulting light skeletal SR contains 80% SERCA, as a proportion of total protein content. Cardiac SR vesicles were isolated from fresh porcine left ventricular tissue.
(§2) To determine compound effect on the Ca^2+-uptake activity of SERCA1a and SERCA2a, we used an oxalate-supported assay. A solution containing 50 mM MOPS (pH 7.0), 100 mM KCl, 30 mg/mL sucrose, 1 mM EGTA, 10 mM potassium oxalate, 2 µM Fluo-4, 30 µg/mL cardiac SR vesicles or 12 μg/mL skeletal SR vesicles, and CaCl2 calculated to reach the desired free [Ca^2+] was dispensed into 384-well black walled, transparent bottomed plates (Greiner Bio-One) containing the tested small molecule and incubated at 21 °C for 20 min while covered and protected from light. To start the reaction, MgATP was added to a final concentration of 5 mM, and the decrease in 485-nm excited fluorescence was monitored at 520 nm for 15 min using a FLIPR Tetra (Molecular Devices, San Jose, CA, USA).
To determine whether the observed increases in SERCA2a ATPase activity translate to Ca^2+ uptake function, we applied our Ca^2+ transport assay to test our selected Hit compounds in cardiac SR (Table 1). Indeed, 16 of the 19 compounds yielded a clear increase in Ca^2+ uptake activity. In fact, eight compounds generated an increase at least 50% greater in cardiac SR than in skeletal SR. Three compounds had either an inhibitory or no effect on Ca^2+ transport, and two of these were also non-activating compounds in skeletal SR.

[2] = molecular target: T2, SERCA1a (skeletal SR vesicles) (Oryctolagus cuniculus, UniProt P04191); experiment: Oxalate-supported Ca2+-uptake assay, skeletal SR (CRC at pCa 5.4); assay type: biochemical, rabbit; conditions: for Skeletal SR Ca^2+ Uptake Activity Percent Increase: maximal effect of CRC; for Skeletal SR Ca^2+ Uptake Activity Percent Increase / EC50: pCa 5.4, mean ± SD, dash = no observable effect; for EC50: read-out: Skeletal SR Ca^2+ Uptake Activity EC50; for Ca^2+ uptake effect (in words), SR type not given: uncoupling compounds, cluster 5, tissue not stated; for Effect on Ca^2+ uptake activity in skeletal SR (in words): pCa 5.4
T2 construct: rabbit muscles were freshly harvested from the back and hind leg of New Zealand White rabbits and purified using a sucrose gradient; from tissue; host or cells: rabbit (New Zealand White) back and hind leg skeletal muscle, light SR vesicles
Experimental: as §1, §2
While Ca^2+-dependent ATPase activity is a direct measure of SERCA activity, coupling of ATP hydrolysis to transport of Ca^2+ across the SR membrane is essential for the role of SERCA in cellular physiology. Therefore, we next asked whether our ATPase-based HTS assay could successfully identify compounds that also increase Ca^2+ uptake of SERCA.

[3] = molecular target: T3, SERCA1a (rabbit light skeletal SR vesicles) (Oryctolagus cuniculus, UniProt P04191); experiment: NADH-coupled Ca-ATPase activity assay, skeletal SR (CRC at pCa 5.4); assay type: biochemical; conditions: n = 3; for Skeletal SR ATPase Activity Percent Increase: maximal effect of CRC 0.05 to 50 µM, pCa 5.4, relative to DMSO, mean ± SD; for EC50: pCa 5.4, mean ± SD
T3 construct: rabbit muscles were freshly harvested from the back and hind leg of New Zealand White rabbits and purified using a sucrose gradient; from tissue; host or cells: rabbit (New Zealand White) back and hind leg skeletal muscle, light SR vesicles
Experimental: as §1
(§3) Functional assays were performed using rabbit light skeletal sarcoplasmic (SR) vesicles. For high-throughput NADH-coupled screening, assay mix containing a final concentration of 50 mM MOPS (pH 7.0), 100 mM KCl, 1 mM EGTA, 0.2 mM NADH, 1 mM phosphoenol pyruvate, 10 IU/mL of pyruvate kinase, 10 IU/mL of lactate dehydrogenase, 1 µM of the calcium ionophore A23187, 4 µg/mL skeletal SR, and added CaCl2 to obtain pCa 5.4 was dispensed into 384-well DIVERSet assay plates containing 50 nL of compound or DMSO using a FlexDrop Precision liquid dispenser (Perkin Elmer, Waltham, Massachusetts). Plates were sealed, covered from light, and incubated at room temperature for 20 min. The assay was then started by dispensing MgATP (termed “initiation mix”), to a final concentration of 5 mM in each well (80 µL total assay volume) with the FlexDrop liquid dispenser (Perkin Elmer). The time dependence of absorbance was measured at 340 nm in a SpectraMax Plus384 microplate spectrophotometer (Molecular Devices, Sunnyvale, CA). For follow-up concentration response curves of Hit compounds, 400 nL of either compound or DMSO was dispensed into each well using an Echo liquid dispenser (Beckman Coulter). Testing dose-dependent compound effects on rabbit skeletal SR vesicles was done using the same method, as described above in 384-well plates. Determining compound effects on cardiac SR vesicles was done in a similar method as above, with the exception of 10 µg/mL of cardiac SR incubated in assay mix consisting of a final concentration of 50 mM MOPS (pH 7.0), 100 mM KCl, 1 mM EGTA, 1 µM of the calcium ionophore A23187, and added CaCl2 to the desired free calcium values. After a 20 min incubation, the “initiation mix”, containing a final concentration of 0.2 mM NADH, 1 mM phosphoenol pyruvate, 10 IU/mL of pyruvate kinase, 10 IU/mL of lactate dehydrogenase, and 5mM MgATP, was dispensed into each well.
The initial screen assay was performed with compounds at 10 µM. To better study the selected Hit compounds for their activation potential, we performed ATPase analyses (in triplicate) over a range of Hit concentrations (0.05 to 50 µM), generating concentration-response curves (CRCs) to determine maximal effects and EC50 (Figure 2). We used the same Ca^2+ concentration (pCa 5.4) as in the screening assays, thus focusing on the effects on the maximal velocity of SERCA. Two of the selected Hits yielded no response in follow-up assays, probably due to a mismatch in chemical composition between the library compound and the subsequently ordered compound (DS95401435 and DS41547941). This type of discrepancy is a typical hurdle in the screening process. Each of the other 19 compounds produced a substantial increase in ATPase activity, ranging from 30% to 72% (Table 1 and Supporting Information, Figure S1), as expected due to similarity of the CRC assay to the initial screen.

[4] = molecular target: T1, SERCA2a (cardiac SR vesicles); experiment: NADH-coupled Ca-ATPase activity assay, cardiac SR (CRC at pCa 5.4); assay type: biochemical, porcine; conditions: pCa 5.4, mean ± SD, n = 3; for Cardiac SR ATPase Activity Percent Increase: maximal effect of CRC
Experimental: as §1, §3
While initial screening was performed in skeletal SR enriched with the SERCA1a isoform, high sequence and structural homology with the cardiac SERCA2a isoform predicts a potential for cross reactivity of the Hit compounds. To test this hypothesis, we performed ATPase analyses with cardiac SR microsomes, which are enriched for SERCA2a.

T1 sequence (P11607 1-997 isoform P11607-2): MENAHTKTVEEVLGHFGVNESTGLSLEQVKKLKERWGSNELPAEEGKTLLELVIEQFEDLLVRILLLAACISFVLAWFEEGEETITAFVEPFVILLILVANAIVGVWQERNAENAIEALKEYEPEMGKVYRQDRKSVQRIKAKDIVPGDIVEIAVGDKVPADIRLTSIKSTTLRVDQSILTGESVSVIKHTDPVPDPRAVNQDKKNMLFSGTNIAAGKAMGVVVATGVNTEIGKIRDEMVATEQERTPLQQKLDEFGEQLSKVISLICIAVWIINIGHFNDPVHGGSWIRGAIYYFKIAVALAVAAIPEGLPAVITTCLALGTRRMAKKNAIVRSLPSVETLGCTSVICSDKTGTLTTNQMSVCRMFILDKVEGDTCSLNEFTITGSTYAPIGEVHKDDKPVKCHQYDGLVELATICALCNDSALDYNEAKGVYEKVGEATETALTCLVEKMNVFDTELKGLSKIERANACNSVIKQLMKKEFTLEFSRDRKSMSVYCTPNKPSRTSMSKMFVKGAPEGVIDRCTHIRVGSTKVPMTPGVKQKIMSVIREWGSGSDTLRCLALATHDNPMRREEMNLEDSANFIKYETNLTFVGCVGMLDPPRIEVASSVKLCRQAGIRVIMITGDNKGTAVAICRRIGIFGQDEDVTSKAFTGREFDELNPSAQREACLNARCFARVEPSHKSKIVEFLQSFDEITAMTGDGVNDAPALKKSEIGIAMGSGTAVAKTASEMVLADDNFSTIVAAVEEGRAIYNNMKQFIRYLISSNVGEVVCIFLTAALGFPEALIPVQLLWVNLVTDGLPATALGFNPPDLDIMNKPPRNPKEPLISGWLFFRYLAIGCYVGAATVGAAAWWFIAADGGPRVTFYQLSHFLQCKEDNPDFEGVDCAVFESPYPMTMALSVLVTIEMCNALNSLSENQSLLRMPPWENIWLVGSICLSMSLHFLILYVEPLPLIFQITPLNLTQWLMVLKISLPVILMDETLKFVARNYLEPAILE
T3 sequence (P04191 1-994 isoform P04191-2): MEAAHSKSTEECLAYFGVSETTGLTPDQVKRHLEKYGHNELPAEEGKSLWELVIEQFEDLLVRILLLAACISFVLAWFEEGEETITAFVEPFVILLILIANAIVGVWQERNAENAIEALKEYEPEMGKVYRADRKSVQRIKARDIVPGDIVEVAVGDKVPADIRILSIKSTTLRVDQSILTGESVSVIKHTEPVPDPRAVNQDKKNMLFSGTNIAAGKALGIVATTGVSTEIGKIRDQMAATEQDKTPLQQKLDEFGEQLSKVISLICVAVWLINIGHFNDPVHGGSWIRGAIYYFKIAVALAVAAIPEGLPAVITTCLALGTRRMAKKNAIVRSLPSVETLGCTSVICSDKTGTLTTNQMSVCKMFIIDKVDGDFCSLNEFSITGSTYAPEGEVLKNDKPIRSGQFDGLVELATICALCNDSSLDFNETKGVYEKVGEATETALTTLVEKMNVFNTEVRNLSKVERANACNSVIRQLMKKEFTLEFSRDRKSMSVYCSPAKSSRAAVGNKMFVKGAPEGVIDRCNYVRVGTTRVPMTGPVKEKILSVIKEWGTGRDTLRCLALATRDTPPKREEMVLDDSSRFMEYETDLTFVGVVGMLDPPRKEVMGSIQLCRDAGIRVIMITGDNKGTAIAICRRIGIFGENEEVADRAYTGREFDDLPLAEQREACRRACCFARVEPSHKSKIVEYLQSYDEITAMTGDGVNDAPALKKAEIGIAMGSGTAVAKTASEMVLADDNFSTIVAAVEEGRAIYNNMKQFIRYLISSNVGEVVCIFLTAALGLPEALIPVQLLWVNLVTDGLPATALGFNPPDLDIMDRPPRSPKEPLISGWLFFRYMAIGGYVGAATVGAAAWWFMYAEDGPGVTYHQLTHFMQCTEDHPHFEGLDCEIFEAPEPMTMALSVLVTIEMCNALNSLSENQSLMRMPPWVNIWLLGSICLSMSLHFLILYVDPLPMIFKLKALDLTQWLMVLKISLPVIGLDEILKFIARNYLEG
T2 sequence (P04191 1-994 isoform P04191-2): as above

Row | SMILES | Increase in Ca^2+ uptake in cardiac SR vs. skeletal [1] | Cardiac SR Ca^2+ Uptake Activity Percent Increase ([1]; n = 3) [%] | EC50 ([1]; n = 3) [µM] | Skeletal SR Ca^2+ Uptake Activity Percent Increase ([2]; n = 3) [%] | EC50 ([2]; n = 3) [µM] | Skeletal SR ATPase Activity Percent Increase [3] [%] | EC50 [3] [µM] | Cardiac SR ATPase Activity Percent Increase [4] [%] | EC50 [4] [µM] | Ca^2+ uptake effect (in words), SR type not given [2] | Compound classification from ATPase vs. Ca^2+ uptake CRCs, cardiac SR ([1]; cardiac SR, n = 3) | Effect on Ca^2+ uptake activity in cardiac SR (in words) ([1]; cardiac SR, pCa 5.4) | Compound classification from ATPase vs. Ca^2+ uptake CRCs, skeletal SR ([2]; skeletal SR, n = 3) | Effect on Ca^2+ uptake activity in skeletal SR (in words) ([2]; skeletal SR) | Effect on Ca^2+ uptake activity in skeletal SR (in words) ([2]; skeletal SR, listed as DS33804556)
1 | CN(Cc1ccccc1)c1ncccc1CNc1ncccc1Cl [Compound 13] | greater than 2 fold | 21 ± 10 | 1.8 ± 2 | 8 ± 2 | 1.1 ± 0.6 | 36 ± 4 | 3.2 ± 0.6 | 36 ± 4 | 2.9 ± 0.6 |  |  |  |  |  | 
2 | COc1ccccc1CNc1nc(C(C)(C)C)nc2c1cnn2C [Compound 14] | greater than 2 fold | 28 ± 5 | 2.5 ± 0.9 | 8 ± 2 |  | 25 ± 3 | 3.3 ± 0.6 | 56 ± 3 | 5.2 ± 0.5 |  |  |  |  |  | 
3 | C=C(C)COc1cccc(C(=O)NCCn2cccn2)c1 [Compound 15] |  | 6 ± 5 | 5 ± 11 |  |  | 30 ± 1 | 30 ± 12 | 46 ± 6 | 16 ± 3 | little to no Ca^2+ uptake effect |  |  |  |  | 
4 | COc1ccc(CCNC(=O)c2oc3c(Cl)cc(C)cc3c2C)cc1 [Compound 16] |  | −27 ± 3 | 8.9 ± 2 | −10 ± 2 | 7 ± 13 | 25 ± 1 | 3 ± 0.3 | 26 ± 2 | 2.2 ± 0.4 | sizeable inhibitor effect | Uncoupling Compounds | inhibition of Ca^2+ uptake activity; also recorded: inhibitor of Ca^2+ uptake | Uncoupling Compounds | inhibition of Ca^2+ uptake activity; also recorded: inhibitor of Ca^2+ uptake | inhibitory
5 | COc1cccc(-c2nn(-c3ccccc3)cc2CN(Cc2c(C)nn(C)c2C)C2CC2)c1 [Compound 18] |  | 12 ± 1 | 0.9 ± 0.2 | 8.9 ± 0.1 | 1.1 ± 0.3 | 39 ± 1 | 5.2 ± 0.3 | 37 ± 1 | 4.3 ± 0.3 |  |  |  |  |  | 
6 | OCc1ccccc1-c1ccc(-c2nc(CCc3ccccc3)no2)cn1 [Compound 19] |  | 8 ± 1 | 2.4 ± 0.6 | 7.2 ± 0.1 | 1.8 ± 0.7 | 42 ± 2 | 7.3 ± 0.8 | 22 ± 2 | 6.3 ± 0.4 |  |  |  |  |  | 
